For data set [1], the system named is Aedes atropalpus. As to the kind of experiment: Toxicity in second-instar Aedes atropalpus larvae at 10 ppm after 24 hrs. It counts as functional, organism-based.
Data set [2] can be described thus: Partition coefficient, log P of the compound. It counts as physicochemical. Conditions: octanol/water.
Data set [3] relates to Aedes atropalpus. As to the kind of experiment: Toxicity in second-instar Aedes atropalpus larvae at 100 ppm after 24 hrs. In kind it is functional, organism-based.
The test system of data set [4] is Aedes atropalpus. Nature of the data set: Toxicity in second-instar Aedes atropalpus in pupal stage assessed as growth. In kind it is functional, organism-based.
Data set [5] deals with Aedes atropalpus. Nature of the data set: Toxicity in second-instar Aedes atropalpus in adult stage assessed as growth. It counts as functional, organism-based.

Each structure is given as a SMILES string. Activity calls are given as the source filed them. No cut-off for these calls is given here.

For orientation: logP means the decadic logarithm of the partition coefficient of the neutral form, usually between octanol and water. High values mean a more lipophilic compound, low ones a more hydrophilic compound.

For `C=C1C(=O)O[C@@H]2C[C@@]3(C)CCCC(=C)[C@@H]3C[C@H]12` [ISOALANTOLACTONE], the outcome in the data set with Aedes atropalpus [1], in the data set on Aedes atropalpus [3], in the data set on Aedes atropalpus [4] and in the data set on Aedes atropalpus [5] was Active. For the same compound, the logP in data set [2] is 3.42.
`C=C1C(=O)O[C@@H]2[C@H]1CC[C@H](C)[C@@H]1[C@H](O)CC(=O)[C@]12C` [BIPINNATIN]: in data set [2], the logP turned out to be 1.62. The outcome in the data set with Aedes atropalpus [4] and with Aedes atropalpus [5] was Active.
As for `C=C1C(=O)O[C@@H]2[C@H]1CC[C@H](C)[C@]1(O)C=CC(=O)[C@@]21C` [PARTHENIN], the result in the data set with Aedes atropalpus [1], in the data set on Aedes atropalpus [3], in the data set with Aedes atropalpus [4] and in the data set on Aedes atropalpus [5] was Active. Also, the logP in data set [2] was 1.37.
On to `C[C@H]1C(=O)O[C@@H]2[C@H]1CC[C@H](C)[C@]1(O)C=CC(=O)[C@@]21C` [HYMENOLIN], for which, in data set [2], the logP worked out at 1.7. In addition, the outcome in the data set on Aedes atropalpus [4] and in the data set on Aedes atropalpus [5] was Active.
Turning to `C=C1C(=O)O[C@@H]2C[C@@]3(C)CCC[C@H](C)C3=C[C@H]12` [HELENINE], the result in the data set on Aedes atropalpus [1], in the data set with Aedes atropalpus [3], with Aedes atropalpus [4] and in the data set on Aedes atropalpus [5] was Active. Also, the logP in data set [2] stood at 3.38.
`C=C1C(=O)O[C@@H]2[C@H]1CC[C@H](C)[C@]1(O)CCC(=O)[C@@]21C` [CORONOPILIN]: in data set [2], the logP is 1.42. For the same compound, the outcome in the data set with Aedes atropalpus [4] and in the data set on Aedes atropalpus [5] was Active.
